# Test results from ChEMBL document CHEMBL1201862, “PubChem BioAssay data set” (2004).
#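 A five-concentration, 48-hour dose response in 96-well plates underlies each endpoint, interpolated linearly between surrounding concentrations. The concentration for 50% growth inhibition is given as GI50.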 Calls of active or inactive are those of the source. Rule as the data show it: active = GI50 up to about 1.1 µM and inactive = higher.
# Assays:
# Test in all cases: NCI-60 cell line screen, 48 h
# [1] = system: SK-MEL-2
# [2] = system: SN12C
# [3] = system: IGROV-1
# [4] = system: HOP-92
# [5] = system: HCT-116
# [6] = system: SK-MEL-5
# [7] = system: U-251
# [8] = system: Malme-3M
# [9] = system: SF-295
# [10] = system: NCI/ADR-RES
# [11] = system: SK-OV-3
# [12] = system: UO-31
# [13] = system: RPMI-8226
# [14] = system: CCRF-CEM
# [15] = system: TK-10
# [16] = system: DU-145
# [17] = system: UACC-257
# [18] = system: A549
# [19] = system: COLO 205
# [20] = system: A498
# [21] = system: OVCAR-3
# [22] = system: PC-3
# [23] = system: NCI-H226
# [24] = system: MOLT-4
# [25] = system: NCI-H23
# [26] = system: NCI-H522
# [27] = system: M14
# [28] = system: CAKI-1
# [29] = system: SNB-75
# [30] = system: EKVX
# [31] = system: SF-268
# [32] = system: Hs-578T
# [33] = system: HCT-15
# [34] = system: OVCAR-4
# [35] = system: RXF 393
# [36] = system: NCI-H460
# [37] = system: ACHN
# [38] = system: MDA-N
# [39] = system: SNB-19
# [40] = system: T47D
# [41] = system: MDA-MB-231
# [42] = system: HT-29
# [43] = system: MCF7
# [44] = system: UACC-62
# [45] = system: BT-549
# [46] = system: SF-539
# [47] = system: KM12
# [48] = system: HL-60
# [49] = system: MDA-MB-435
# [50] = system: K562
# [51] = system: OVCAR-8
# [52] = system: HOP-62
# [53] = system: 786-0
# [54] = system: OVCAR-5
# [55] = system: LOX IMVI
# [56] = system: SK-MEL-28
# [57] = system: SW-620
# [58] = system: SR
compound,measurement,setting,value
Cc1c(NC(=O)Nc2c(Cl)cccc2Cl)c(=O)n(-c2ccccc2)n1C,GI50,[1],> 100 µM (inactive)
same,GI50,[2],> 100 µM (inactive)
same,GI50,[3],> 100 µM (inactive)
same,GI50,[4],> 100 µM (inactive)
same,GI50,[5],> 100 µM (inactive)
same,GI50,[6],> 100 µM (inactive)
same,GI50,[7],> 100 µM (inactive)
same,GI50,[8],> 100 µM (inactive)
same,GI50,[9],> 100 µM (inactive)
same,GI50,[10],> 100 µM (inactive)
same,GI50,[11],> 100 µM (inactive)
same,GI50,[12],> 100 µM (inactive)
same,GI50,[13],> 100 µM (inactive)
same,GI50,[14],46.7 µM (inactive)
same,GI50,[15],> 100 µM (inactive)
same,GI50,[16],> 100 µM (inactive)
same,GI50,[17],> 100 µM (inactive)
same,GI50,[18],> 100 µM (inactive)
same,GI50,[19],> 100 µM (inactive)
same,GI50,[20],> 100 µM (inactive)
same,GI50,[21],> 100 µM (inactive)
same,GI50,[22],> 100 µM (inactive)
same,GI50,[23],> 100 µM (inactive)
same,GI50,[24],> 100 µM (inactive)
same,GI50,[25],> 100 µM (inactive)
same,GI50,[26],> 100 µM (inactive)
same,GI50,[27],> 100 µM (inactive)
same,GI50,[28],> 100 µM (inactive)
same,GI50,[29],> 100 µM (inactive)
same,GI50,[30],> 100 µM (inactive)
same,GI50,[31],> 100 µM (inactive)
same,GI50,[32],> 100 µM (inactive)
same,GI50,[33],> 100 µM
same,GI50,[34],> 100 µM (inactive)
same,GI50,[35],> 100 µM (inactive)
same,GI50,[36],> 100 µM (inactive)
same,GI50,[37],> 100 µM (inactive)
same,GI50,[38],> 100 µM (inactive)
same,GI50,[39],> 100 µM (inactive)
same,GI50,[40],> 100 µM (inactive)
same,GI50,[41],> 100 µM (inactive)
same,GI50,[42],> 100 µM (inactive)
same,GI50,[43],> 100 µM (inactive)
same,GI50,[44],> 100 µM (inactive)
same,GI50,[45],> 100 µM (inactive)
same,GI50,[46],> 100 µM (inactive)
same,GI50,[47],> 100 µM (inactive)
same,GI50,[48],> 100 µM (inactive)
same,GI50,[49],> 100 µM (inactive)
same,GI50,[50],> 100 µM (inactive)
same,GI50,[51],> 100 µM (inactive)
same,GI50,[52],> 100 µM (inactive)
same,GI50,[53],> 100 µM (inactive)
same,GI50,[54],> 100 µM (inactive)
same,GI50,[55],> 100 µM (inactive)
same,GI50,[56],> 100 µM (inactive)
same,GI50,[57],> 100 µM (inactive)
same,GI50,[58],> 100 µM (inactive)
